Data published in patent US20150307520A1, “NOVEL HETEROARYL AND HETEROCYCLE COMPOUNDS, COMPOSITIONS AND METHODS THEREOF” (HUTCHISON MEDIPHARMA LIMITED, priority 2012, published 2015).

Experiments:
Assay type in all cases: biochemical
p110γ = p110γ (Homo sapiens, UniProt P48736); assay: Transcreener KINASE Assay, kinase inhibition of p110γ; conditions: for PI3Kγ IH % @ 1 uM: 1 uM test compound; for IC50: read-out: PI3Kγ IC50
Method in brief: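 Homogeneous endpoint format using recombinant enzymes; ADP measured by far-red FP immunoassay after 80 min reaction and 60 min detection, both at room temperature.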

p110δ/p85α = p110δ/p85α (Homo sapiens, UniProt O00329); assay: Transcreener KINASE Assay, kinase inhibition of p110δ/p85α; conditions: for PI3Kδ IH % @ 1 uM: 1 uM test compound; for IC50: read-out: PI3Kδ IC50
p110δ/p85α, sequence (O00329 whole entry): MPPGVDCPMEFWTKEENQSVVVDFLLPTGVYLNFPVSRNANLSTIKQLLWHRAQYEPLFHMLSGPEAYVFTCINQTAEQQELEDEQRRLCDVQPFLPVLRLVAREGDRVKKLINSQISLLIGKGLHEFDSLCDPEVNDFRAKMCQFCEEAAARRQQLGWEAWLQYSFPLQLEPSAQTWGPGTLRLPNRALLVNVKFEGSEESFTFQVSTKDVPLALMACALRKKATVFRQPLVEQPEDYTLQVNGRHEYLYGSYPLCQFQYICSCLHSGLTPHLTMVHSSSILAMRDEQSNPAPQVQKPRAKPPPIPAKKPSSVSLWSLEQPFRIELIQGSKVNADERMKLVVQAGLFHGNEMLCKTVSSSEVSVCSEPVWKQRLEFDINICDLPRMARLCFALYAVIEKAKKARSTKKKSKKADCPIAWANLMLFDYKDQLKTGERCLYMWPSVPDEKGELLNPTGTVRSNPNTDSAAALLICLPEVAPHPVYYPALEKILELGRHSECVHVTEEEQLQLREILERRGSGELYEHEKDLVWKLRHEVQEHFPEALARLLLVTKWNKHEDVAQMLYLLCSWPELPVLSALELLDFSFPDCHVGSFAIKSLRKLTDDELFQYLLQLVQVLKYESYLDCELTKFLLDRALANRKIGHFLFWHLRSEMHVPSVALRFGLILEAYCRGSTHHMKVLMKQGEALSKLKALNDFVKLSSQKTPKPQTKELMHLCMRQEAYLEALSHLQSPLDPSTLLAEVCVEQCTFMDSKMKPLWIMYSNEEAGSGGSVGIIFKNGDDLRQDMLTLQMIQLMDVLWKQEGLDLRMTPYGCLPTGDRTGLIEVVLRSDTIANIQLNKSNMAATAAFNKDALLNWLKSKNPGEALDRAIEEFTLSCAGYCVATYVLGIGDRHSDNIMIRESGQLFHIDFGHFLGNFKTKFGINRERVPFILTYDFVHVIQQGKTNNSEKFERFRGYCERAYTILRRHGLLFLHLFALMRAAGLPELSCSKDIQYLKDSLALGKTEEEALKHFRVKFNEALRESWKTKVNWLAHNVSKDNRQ
p110δ/p85α, sequence (P27986 whole entry partner): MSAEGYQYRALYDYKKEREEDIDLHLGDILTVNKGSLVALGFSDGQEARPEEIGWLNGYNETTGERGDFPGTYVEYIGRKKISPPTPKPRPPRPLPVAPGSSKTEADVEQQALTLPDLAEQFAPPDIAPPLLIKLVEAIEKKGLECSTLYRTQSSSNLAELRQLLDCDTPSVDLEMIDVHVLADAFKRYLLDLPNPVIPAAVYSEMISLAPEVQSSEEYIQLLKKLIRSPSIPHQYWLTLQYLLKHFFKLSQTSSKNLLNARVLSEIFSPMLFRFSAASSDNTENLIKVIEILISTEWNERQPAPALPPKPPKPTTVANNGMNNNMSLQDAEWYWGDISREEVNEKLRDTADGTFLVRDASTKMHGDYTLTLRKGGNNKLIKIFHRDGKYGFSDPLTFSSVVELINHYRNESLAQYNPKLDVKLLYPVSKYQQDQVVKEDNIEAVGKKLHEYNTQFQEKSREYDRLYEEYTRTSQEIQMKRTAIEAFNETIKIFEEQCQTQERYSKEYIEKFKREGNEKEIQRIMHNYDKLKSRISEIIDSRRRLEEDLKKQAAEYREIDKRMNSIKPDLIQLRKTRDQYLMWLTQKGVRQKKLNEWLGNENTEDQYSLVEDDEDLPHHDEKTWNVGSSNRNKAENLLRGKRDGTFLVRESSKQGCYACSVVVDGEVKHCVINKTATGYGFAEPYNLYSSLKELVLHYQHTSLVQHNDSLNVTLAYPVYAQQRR
Method in brief: (§1)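 ADP formation read by far-red competitive FP immunoassay (60 min RT detection step) after an 80 min RT kinase reaction; substrate added as a 30 uM PIP2/10 uM ATP solution (not final).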

p110β/p85α = p110β/p85α (Homo sapiens, UniProt P42338); assay: Transcreener KINASE Assay, kinase inhibition of p110β/p85α; conditions: for PI3Kβ IH % @ 1 uM: 1 uM test compound; for IC50: read-out: PI3Kβ IC50
p110β/p85α, sequence (P42338 whole entry): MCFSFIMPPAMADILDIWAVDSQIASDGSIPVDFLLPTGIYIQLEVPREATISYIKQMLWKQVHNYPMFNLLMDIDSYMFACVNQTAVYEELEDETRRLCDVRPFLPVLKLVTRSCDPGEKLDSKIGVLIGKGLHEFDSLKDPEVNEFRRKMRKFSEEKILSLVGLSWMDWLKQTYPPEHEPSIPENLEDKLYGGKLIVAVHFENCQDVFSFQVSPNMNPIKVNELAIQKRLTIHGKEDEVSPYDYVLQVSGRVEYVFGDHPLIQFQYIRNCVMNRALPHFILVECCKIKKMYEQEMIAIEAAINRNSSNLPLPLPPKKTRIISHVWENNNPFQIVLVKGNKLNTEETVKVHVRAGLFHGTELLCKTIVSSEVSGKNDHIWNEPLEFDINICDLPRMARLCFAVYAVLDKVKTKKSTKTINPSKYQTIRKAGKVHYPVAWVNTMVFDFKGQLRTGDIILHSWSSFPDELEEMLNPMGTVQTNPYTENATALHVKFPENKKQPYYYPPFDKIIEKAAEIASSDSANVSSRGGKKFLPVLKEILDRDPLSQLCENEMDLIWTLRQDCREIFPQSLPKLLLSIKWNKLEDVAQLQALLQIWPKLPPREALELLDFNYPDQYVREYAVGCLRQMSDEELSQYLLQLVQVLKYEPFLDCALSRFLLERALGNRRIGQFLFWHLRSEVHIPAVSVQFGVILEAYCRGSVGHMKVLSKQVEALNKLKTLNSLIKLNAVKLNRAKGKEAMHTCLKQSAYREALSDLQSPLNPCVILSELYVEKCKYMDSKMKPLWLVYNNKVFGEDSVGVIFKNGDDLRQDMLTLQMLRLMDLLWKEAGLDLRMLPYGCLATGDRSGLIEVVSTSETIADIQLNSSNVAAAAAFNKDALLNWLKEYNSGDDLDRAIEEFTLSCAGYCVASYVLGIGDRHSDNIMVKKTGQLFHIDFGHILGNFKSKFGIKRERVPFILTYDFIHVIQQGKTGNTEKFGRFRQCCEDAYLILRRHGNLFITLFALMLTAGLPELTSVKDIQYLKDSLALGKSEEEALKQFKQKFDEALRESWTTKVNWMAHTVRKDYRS
p110β/p85α, sequence (P27986 2-724 partner): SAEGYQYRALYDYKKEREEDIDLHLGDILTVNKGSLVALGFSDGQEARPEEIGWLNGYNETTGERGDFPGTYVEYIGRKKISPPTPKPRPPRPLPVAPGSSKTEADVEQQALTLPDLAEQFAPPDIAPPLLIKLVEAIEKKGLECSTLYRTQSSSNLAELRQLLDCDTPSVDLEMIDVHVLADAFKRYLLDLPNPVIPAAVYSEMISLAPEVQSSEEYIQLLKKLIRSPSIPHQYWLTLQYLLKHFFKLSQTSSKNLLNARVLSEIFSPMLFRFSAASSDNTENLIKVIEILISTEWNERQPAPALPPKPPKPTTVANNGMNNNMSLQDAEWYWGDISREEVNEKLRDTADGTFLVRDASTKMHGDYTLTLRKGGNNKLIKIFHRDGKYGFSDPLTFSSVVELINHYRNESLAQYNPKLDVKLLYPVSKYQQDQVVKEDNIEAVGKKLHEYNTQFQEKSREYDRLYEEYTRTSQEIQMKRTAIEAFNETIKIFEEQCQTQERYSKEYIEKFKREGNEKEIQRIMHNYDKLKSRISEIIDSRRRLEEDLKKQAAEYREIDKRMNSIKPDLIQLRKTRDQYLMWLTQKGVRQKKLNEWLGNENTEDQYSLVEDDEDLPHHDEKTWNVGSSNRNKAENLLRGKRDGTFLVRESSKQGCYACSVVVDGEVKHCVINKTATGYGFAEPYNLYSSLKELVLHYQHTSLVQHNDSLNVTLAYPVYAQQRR
Method in brief: as §1

p110γ, sequence (P48736 whole entry): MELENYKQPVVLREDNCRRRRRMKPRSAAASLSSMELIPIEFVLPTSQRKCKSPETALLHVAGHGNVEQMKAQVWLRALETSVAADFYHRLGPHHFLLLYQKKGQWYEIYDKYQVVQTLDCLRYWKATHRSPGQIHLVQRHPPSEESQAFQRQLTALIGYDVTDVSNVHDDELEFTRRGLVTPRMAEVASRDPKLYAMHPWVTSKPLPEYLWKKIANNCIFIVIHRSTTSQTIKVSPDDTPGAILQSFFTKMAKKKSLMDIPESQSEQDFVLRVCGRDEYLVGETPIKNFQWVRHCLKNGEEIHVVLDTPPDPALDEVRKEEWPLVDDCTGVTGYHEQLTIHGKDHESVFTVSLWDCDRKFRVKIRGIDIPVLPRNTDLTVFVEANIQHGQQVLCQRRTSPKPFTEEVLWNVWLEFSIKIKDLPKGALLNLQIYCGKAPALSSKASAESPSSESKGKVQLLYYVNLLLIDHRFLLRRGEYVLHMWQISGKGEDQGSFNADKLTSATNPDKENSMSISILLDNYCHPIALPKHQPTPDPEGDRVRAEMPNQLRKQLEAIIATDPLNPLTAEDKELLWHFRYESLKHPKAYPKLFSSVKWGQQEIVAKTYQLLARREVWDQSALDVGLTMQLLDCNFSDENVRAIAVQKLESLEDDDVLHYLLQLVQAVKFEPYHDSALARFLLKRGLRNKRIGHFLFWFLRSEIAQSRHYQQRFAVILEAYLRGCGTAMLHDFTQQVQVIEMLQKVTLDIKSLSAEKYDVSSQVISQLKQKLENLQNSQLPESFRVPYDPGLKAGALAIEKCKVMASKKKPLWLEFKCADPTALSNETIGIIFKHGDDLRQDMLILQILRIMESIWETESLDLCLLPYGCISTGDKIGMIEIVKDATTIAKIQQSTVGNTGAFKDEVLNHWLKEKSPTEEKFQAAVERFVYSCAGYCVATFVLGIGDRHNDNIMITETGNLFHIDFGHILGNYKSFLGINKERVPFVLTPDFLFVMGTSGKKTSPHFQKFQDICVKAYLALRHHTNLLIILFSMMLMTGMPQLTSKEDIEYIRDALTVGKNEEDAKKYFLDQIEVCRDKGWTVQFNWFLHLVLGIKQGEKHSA

| PI3Kγ IH % @ 1 uM (p110γ) [%] | IC50 (p110γ) [nM] | PI3Kδ IH % @ 1 uM (p110δ/p85α) [%] | PI3Kβ IH % @ 1 uM (p110β/p85α) [%] | IC50 (p110β/p85α) [nM] | IC50 (p110δ/p85α) [nM] | SMILES |
| --- | --- | --- | --- | --- | --- | --- |
| 85.6 | 239 | 94.3 | 47.8 |  |  | CC(Nc1ncnc2[nH]cnc12)c1cc2cccn2c(=O)n1-c1ccccc1 (centres unmarked) [Compound 119, 3-(1-(9H-purin-6-ylamino)ethyl)-2-phenylpyrrolo[1,2-c]pyrimidin-1(2H)-one] |
| 85.9 | 295 | >100 | 74.7 | 237 |  | CC(Nc1ncnc(N)c1C#N)c1cc2cccn2c(=O)n1-c1ccccc1 (centres unmarked) [Compound 120] |
| >100 | 12 | 98.0 | 95.0 | 22 | 2 | CC(Nc1ncnc2[nH]cc(C#N)c12)c1cc2ccc(Cl)n2c(=O)n1-c1ccccc1 (centres unmarked) [Compound 124] |
| >100 | 70 | >100 | 74.5 | 338 | 9 | O=c1c2c(F)ccn2nc([C@@H]2C[C@H](F)CN2c2ncnc3[nH]cnc23)n1-c1ccccc1 [Compound 132, 5-fluoro-2-((2S,4S)-4-fluoro-1-(9H-purin-6-yl)pyrrolidin-2-yl)-3-phenylpyrrolo[2,1-f][1,2,4]triazin-4(3H)-one] |
| 65.9 |  | 88.1 | 11.5 |  | 172 | CCc1ccn2nc([C@@H]3CCN3c3ncnc4[nH]cc(C#N)c34)n(-c3ccccc3)c(=O)c12 [Compound 133, (S)-4-(2-(5-ethyl-4-oxo-3-phenyl-3,4-dihydropyrrolo[2,1-f][1,2,4]triazin-2-yl)azetidin-1-yl)-7H-pyrrolo[2,3-d]pyrimidine-5-carbonitrile] |
| >100 | 12 | 74.5 | 20.6 |  | 51 | Nc1nc(N2CC[C@H]2c2nn3ccc(Br)c3c(=O)n2-c2ccccc2)n2nccc2n1 [Compound 135] |
| 95.0 | 42 | 83.5 | 27.6 |  | 124 | Nc1nc(N2CC(F)(F)C[C@H]2c2nn3ccc(Cl)c3c(=O)n2-c2ccccc2)n2nccc2n1 [Compound 136] |
| 89.3 | 13 | 96.8 | 35.9 |  | 36 | Nc1nc(N2CC[C@H]2c2nn3ccc(Cl)c3c(=O)n2-c2ccccc2)n2nccc2n1 [Compound 137] |
| 46.5 |  | 64.8 | 18.0 |  |  | NC(=O)c1ccn2nc([C@@H]3CCCN3c3ncnc4[nH]cnc34)n(-c3ccccc3)c(=O)c12 [Compound 139, (S)-2-(1-(9H-purin-6-yl)pyrrolidin-2-yl)-4-oxo-3-phenyl-3,4-dihydropyrrolo[2,1-f][1,2,4]triazine-5-carboxamide] |
| 75.5 | 390 | 81.1 | 13.5 |  | 298 | O=c1c2c(Cl)ccn2nc([C@@H]2CCN2c2ncnc3[nH]ccc23)n1-c1ccccc1 [Compound 142] |
| 82.3 | 95 | 88.8 | 63.0 |  | 70 | CS(=O)(=O)c1c[nH]c2ncnc(N3CC[C@H]3c3nn4ccc(Cl)c4c(=O)n3-c3ccccc3)c12 [Compound 143] |

Second part, the molecule before the results:

| SMILES | PI3Kγ IH % @ 1 uM (p110γ) [%] | IC50 (p110γ) [nM] | PI3Kδ IH % @ 1 uM (p110δ/p85α) [%] | PI3Kβ IH % @ 1 uM (p110β/p85α) [%] | IC50 (p110β/p85α) [nM] | IC50 (p110δ/p85α) [nM] |
| --- | --- | --- | --- | --- | --- | --- |
| CC(Nc1ncnc2[nH]cnc12)c1cc2ccc(Cl)n2c(=O)n1-c1ccccc1 (centres unmarked) [Compound 122, 3-(1-(9H-purin-6-ylamino)ethyl)-7-chloro-2-phenylpyrrolo[1,2-c]pyrimidin-1(2H)-one] | >100 | 8 | >100 | 88.3 | 51 | 3 |
| CC(Nc1ncnc(N)c1C#N)c1cc2ccc(Cl)n2c(=O)n1-c1ccccc1 (centres unmarked) [Compound 125] | 94.0 | 3 | >100 | 95.7 | 6 | 1 |
| CC(Nc1ncnc(N)c1C#N)c1cc2c(Cl)cc(Cl)n2c(=O)n1-c1ccccc1 (centres unmarked) [Compound 126] | >100 | 20 | >100 | 90.9 | 25 | 1 |
| CC(Nc1ncnc2[nH]cc(C#N)c12)c1cc2c(Cl)cc(Cl)n2c(=O)n1-c1cccc(F)c1 (centres unmarked) [Compound 129] | 33.3 |  | 97.8 | 17.8 |  | 18 |
| Nc1nc(N2CCC[C@H]2c2nn3ccc(Cl)c3c(=O)n2-c2ccccc2)n2nccc2n1 [Compound 134, (S)-2-(1-(2-aminopyrazolo[1,5-a][1,3,5]triazin-4-yl)pyrrolidin-2-yl)-5-chloro-3-phenylpyrrolo[2,1-f][1,2,4]triazin-4(3H)-one] | >100 | 30 | >100 | 59.2 |  | 5 |
| Nc1ncnc(N2CCC[C@H]2c2nn3ccc(Cl)c3c(=O)n2-c2ccccc2)n1 [Compound 138, (S)-2-(1-(4-amino-1,3,5-triazin-2-yl)pyrrolidin-2-yl)-5-chloro-3-phenylpyrrolo[2,1-f][1,2,4]triazin-4(3H)-one] | 95.0 | 75 | >100 | 42.3 |  | 12 |
| N#Cc1c[nH]c2ncnc(N3CCC[C@H]3c3nn4ccc(C(N)=O)c4c(=O)n3-c3ccccc3)c12 [Compound 140] | 82.3 | 116 | >100 | 15.0 |  | 51 |
| N#Cc1c(N)ncnc1N1CC(F)(F)C[C@H]1c1nn2ccc(Cl)c2c(=O)n1-c1ccccc1 [Compound 141] | 92.3 | 151 | >100 | 28.2 |  | 5 |
